The data set is described as follows: Oral bioavailability studies in dogs. The data set is classed as in vivo. Conditions: both sexes, beagle, dog, plasma; unformulated solid in a capsule dosage form, 5 mg/kg oral dose in dogs. How it is done: These capsules were administered to fasted dogs with 10 ml of water.
These capsules were administered to non-fasted dogs with ten milliliter of water.
These capsules were administered to fed dogs with ten milliliter of water.
Dogs (beagle dogs, mixed sexes, weighing 7-14 kg) were fasted overnight prior to dosing, but were permitted water ad libitum. Each dog received a 100 μg/kg subcutaneous dose of histamine approximately 30 minutes prior to dosing. Each dog received a single solid dosage form corresponding to a 5 mg/kg dose of the drug. The dose was followed by approximately 10 milliliters of water. Blood samples were obtained from each animal prior to dosing and 0.25, 0.5, 1.0, 1.5, 2, 3, 4, 6, 8, 10 and 12 hours after drug administration. […] Concentrations of parent drug were determined by reverse phase HPLC with low wavelength UV detection following liquid-liquid extraction of the plasma samples. The parent drug area under the curve was calculated by the trapezoidal method over the time course of the study. The absolute bioavailability of each test composition was calculated by comparing the area under the curve after oral dosing to that obtained from a single intravenous dose. Each capsule or capsule composition was evaluated in a group containing at least six dogs; the values reported are averages for each group of dogs.

Molecules are shown by their SMILES. A value given as a limit tells only on which side of the number the result lay.

The compound `CC(C)c1nc(CN(C)C(=O)N[C@H](C(=O)N[C@@H](Cc2ccccc2)C[C@H](O)[C@H](Cc2ccccc2)NC(=O)OCc2cncs2)C(C)C)cs1` [compound III, (2S,3S,5S)-5-(N-(N-((N-Methyl-N-((2-isopropyl-4-thiazolyl)methyl)-amino)carbonyl)valinyl)amino)-2-(N-((5-thiazolyl)methoxycarbonyl)amino)-1,6-diphenyl-3-hydroxyhexane] returned a bioavailability of less than 2%.

The record behind these values is US6521651B1, “Pharmaceutical composition” (Abbott Laboratories, priority 1996, dated 2003).
